# Assay results reported in patent publication US12528767B2, “HDAC6 inhibitors and uses thereof” (Eikonizo Therapeutics, Inc., priority 2019, dated 2026).
# Read-outs that look alike come from different tables or passages of the source.
# How the values were obtained:
# [1] = biological target: T1, Full length Human HDAC10 (Homo sapiens, UniProt Q969S8)
# T1 sequence (Q969S8 1-669): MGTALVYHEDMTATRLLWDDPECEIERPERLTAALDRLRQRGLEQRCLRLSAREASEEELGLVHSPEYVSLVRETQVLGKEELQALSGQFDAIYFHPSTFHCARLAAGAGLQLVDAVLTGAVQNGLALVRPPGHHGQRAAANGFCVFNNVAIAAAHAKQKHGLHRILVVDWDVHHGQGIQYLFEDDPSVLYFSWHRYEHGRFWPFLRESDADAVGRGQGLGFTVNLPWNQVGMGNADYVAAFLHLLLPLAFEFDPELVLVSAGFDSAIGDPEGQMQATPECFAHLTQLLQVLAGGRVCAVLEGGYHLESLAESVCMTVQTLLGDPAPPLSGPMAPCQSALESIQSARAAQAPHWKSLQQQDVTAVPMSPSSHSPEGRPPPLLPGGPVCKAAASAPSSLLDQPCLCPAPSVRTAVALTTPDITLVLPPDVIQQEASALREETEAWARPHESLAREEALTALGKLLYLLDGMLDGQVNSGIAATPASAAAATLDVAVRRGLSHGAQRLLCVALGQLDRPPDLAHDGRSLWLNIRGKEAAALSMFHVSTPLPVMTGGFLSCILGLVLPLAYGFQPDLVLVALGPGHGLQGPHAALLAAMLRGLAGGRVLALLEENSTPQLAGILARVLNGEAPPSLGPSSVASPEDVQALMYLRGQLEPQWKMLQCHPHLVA
# [2] = biological target: T2, Human HDAC7 aa 518-end (Homo sapiens, UniProt Q8WUI4)
# T2 sequence (Q8WUI4 518-952 limits assumed): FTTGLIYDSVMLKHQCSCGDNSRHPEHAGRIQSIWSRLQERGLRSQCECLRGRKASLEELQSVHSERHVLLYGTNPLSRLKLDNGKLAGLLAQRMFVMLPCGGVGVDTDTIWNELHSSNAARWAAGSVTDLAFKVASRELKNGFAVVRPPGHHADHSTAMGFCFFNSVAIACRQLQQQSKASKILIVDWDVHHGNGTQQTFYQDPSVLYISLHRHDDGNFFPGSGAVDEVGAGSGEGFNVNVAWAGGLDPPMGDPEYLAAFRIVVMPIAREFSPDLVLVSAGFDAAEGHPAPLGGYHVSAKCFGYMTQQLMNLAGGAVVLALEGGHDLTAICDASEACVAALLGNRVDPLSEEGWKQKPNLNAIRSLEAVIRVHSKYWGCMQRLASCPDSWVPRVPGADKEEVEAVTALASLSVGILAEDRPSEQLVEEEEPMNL
# [3] = biological target: T3, Full length Human HDAC8 (Homo sapiens, UniProt Q9BY41)
# T3 sequence (Q9BY41 1-377): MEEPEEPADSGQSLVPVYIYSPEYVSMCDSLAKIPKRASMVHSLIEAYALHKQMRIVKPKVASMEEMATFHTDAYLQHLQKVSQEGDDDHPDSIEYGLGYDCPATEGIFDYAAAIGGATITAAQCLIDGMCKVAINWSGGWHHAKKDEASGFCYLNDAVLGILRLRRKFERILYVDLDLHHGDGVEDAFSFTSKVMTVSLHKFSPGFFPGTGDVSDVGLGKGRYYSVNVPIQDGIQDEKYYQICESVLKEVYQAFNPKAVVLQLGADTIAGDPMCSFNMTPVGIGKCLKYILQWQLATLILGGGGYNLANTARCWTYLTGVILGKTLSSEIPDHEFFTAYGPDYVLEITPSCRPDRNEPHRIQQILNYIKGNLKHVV
# [4] = Metabolic stability in liver microsomes: Mouse CD1; type: in vitro ADME; conditions: 1 μM compound, 0.3 mg/mL protein, NADPH, 37° C., read-out: Mouse CD1 Liver Microsome Stability Half-life
# [5] = biological target: T4, Full length Human HDAC6 (Homo sapiens, UniProt Q9UBN7); conditions: for Selectivity (6 v 8) (fold): ratio of HDAC8 IC50/HDAC6 IC50
# T4 sequence (Q9UBN7 1-1215): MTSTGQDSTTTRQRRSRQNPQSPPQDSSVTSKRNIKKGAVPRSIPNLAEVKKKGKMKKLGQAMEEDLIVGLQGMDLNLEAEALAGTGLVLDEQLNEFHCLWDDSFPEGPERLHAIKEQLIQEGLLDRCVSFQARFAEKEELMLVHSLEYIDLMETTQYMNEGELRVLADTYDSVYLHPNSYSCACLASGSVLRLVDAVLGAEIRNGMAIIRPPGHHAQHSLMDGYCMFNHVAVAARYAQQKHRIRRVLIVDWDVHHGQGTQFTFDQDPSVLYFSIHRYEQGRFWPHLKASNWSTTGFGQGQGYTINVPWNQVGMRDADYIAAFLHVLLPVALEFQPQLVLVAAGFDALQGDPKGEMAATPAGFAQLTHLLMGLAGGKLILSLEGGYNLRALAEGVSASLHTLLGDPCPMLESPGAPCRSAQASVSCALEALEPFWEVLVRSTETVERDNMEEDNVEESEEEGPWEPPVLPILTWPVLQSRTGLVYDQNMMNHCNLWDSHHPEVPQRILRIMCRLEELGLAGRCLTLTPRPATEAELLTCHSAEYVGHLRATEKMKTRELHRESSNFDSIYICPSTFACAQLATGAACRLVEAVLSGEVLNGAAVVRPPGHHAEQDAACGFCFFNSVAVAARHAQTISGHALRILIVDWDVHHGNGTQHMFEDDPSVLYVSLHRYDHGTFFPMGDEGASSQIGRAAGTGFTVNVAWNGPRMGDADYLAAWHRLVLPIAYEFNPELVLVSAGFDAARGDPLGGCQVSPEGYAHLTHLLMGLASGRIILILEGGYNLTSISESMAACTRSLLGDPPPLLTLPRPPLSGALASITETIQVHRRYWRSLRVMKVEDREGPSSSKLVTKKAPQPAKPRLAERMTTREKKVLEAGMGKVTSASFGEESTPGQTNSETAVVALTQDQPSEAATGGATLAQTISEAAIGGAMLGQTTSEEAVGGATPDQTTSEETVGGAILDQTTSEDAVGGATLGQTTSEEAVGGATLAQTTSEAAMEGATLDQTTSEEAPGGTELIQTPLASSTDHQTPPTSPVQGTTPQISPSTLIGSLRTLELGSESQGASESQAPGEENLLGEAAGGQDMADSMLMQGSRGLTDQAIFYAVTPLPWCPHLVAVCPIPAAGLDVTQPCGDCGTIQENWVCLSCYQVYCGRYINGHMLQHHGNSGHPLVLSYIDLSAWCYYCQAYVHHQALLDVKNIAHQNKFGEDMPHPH
# [6] = Metabolic stability in liver microsomes: Mouse BL6; type: in vitro ADME; conditions: 1 μM compound, 0.3 mg/mL protein, NADPH, 37° C., read-out: Mouse BL6 Liver Microsome Stability Half-life
# [7] = Plasma stability assay: mouse; type: in vitro ADME; conditions: 10 μM, 37° C.
# [8] = In vivo assessment of brain penetration in mice (IV 1 mg/kg, plasma and brain levels); conditions: mouse, BL/6 mice
# [9] = system: tubulin acetylation (acTubK40) in undifferentiated SH-SY5Y cells; experiment: Tubulin acetylation in cells (Western immunoblot); type: cell-based; conditions: Homo sapiens, 4 hours, acetylTubulin/Tubulin ratio
# Method: (§1) Compound EC50 Determination for Tubulin- and Histone H3 Acetylation in Cells
# (§2) Estimation of the EC50 for exemplary compounds to alter target protein acetylation in undifferentiated SH-SY5Y cells was performed using standard Western immunoblotting methods. […] SH-SY5Y cells were grown to 90% confluency on sterile cell growth plates. 10 mM compound stocks prepared in DMSO and two-fold serial dilutions were prepared from the stock and applied to cells to achieve a 12-point concentration range in cell media from an upper limit of 10 μM to a lower limit of DMSO [zero compound].
# (§3) Cells were incubated under normal growth conditions (37° C., 5% CO2) in the presence of compound for 4 hours, then media was aspirated and cells were rinsed two times with 1×DPBS with calcium and magnesium warmed to 37° C. Cells were frozen directly on the plates on a bed of dry ice for 5 min, then stored at −80° C. until protein extraction.
# (§4) Protein extraction was performed in RIPA buffer (50 mM Tris-HCL pH 8.0, 150 mM NaCl, 0.5% sodium deoxycholate, 0.1% sodium dodecyl sulfate, 1% NP-40) supplemented with Pierce protease inhibitor mini tables (Thermofisher cat #A32953) exactly as described by the manufacturer. After thawing the plate on a bed of wet ice for 10 minutes, lysis buffer was added to each well (e.g. 100 μL per well of a 24-well plate) and cells scraped from the bottom of each well. Lysates were then sonicated over ice (40% power, 30 pulses of 1 second on, 2 seconds off), centrifuged at 16,000 g for 10 min at 4° C., and the clarified supernatant saved. Protein concentration was determined by BCA assay and at least 3 μg prepared per lane by combining lysate supernatant aliquot with 1/3 total volume of 3× gel loading buffer containing DTT (NEB Cat. #B7703S), heating for 5 minutes at 95° C., briefly centrifuging and then loading on an SDS-PAGE gel.
# (§5) Proteins were resolved on a 4-20% Tris-Glycine gel and transferred to PVDF membrane using an iBlot2 dry transfer system. The membrane was then blocked for at least 30 minutes at room temperature in TBST containing 5% milk or 5% bovine serum albumin, then incubated overnight at 4° C. with a single primary antibody from the following table:
# (§6) Following primary antibody incubation, membranes were washed, incubated in secondary antibody, washed and incubated in ECL prime western blotting detection reagent (Amersham #RPN223) with membrane exposure and ECL signal capture in a LI-COR Odyssey Imaging system. […] Subsequent densitometry of immunoreactive bands was performed using the ImageStudio software and Microsoft Excel resulting in the following ratios: acetylTubulin/Tubulin and acetyl histone H3K9/histone H3. Raw ratios were uploaded to GraphPad Prism v7.0 with EC50 values modeled using the variable slope equation for log-transformed data [log(agonist) vs response in Prism].
# [10] = Plasma protein binding assay (Rapid Equilibrium Dialysis): mouse; type: in vitro ADME; design: dose or concentration left out as unconfirmed; conditions: pH 7.4, RED, 5 hours at 37° C.
# [11] = system: histone H3 acetylation (acH3K9) in undifferentiated SH-SY5Y cells; experiment: Histone H3 acetylation in cells (Western immunoblot); type: cell-based; conditions: Homo sapiens, 4 hours, acetyl histone H3K9/histone H3 ratio
# Method: as §1, §2, §3, §4, §5, §6
# [12] = in vitro; conditions: human
# [13] = Cell viability in primary rat dorsal root ganglia (DRG); type: cell-based
# [14] = in vitro; conditions: human; remark: listed apart in the source
smiles,measurement,setting,value
O=C(NO)c1cc(F)c2c(c1)CN(CC13CC4CC(CC(C4)C1)C3)C2 [compound 33],IC50,[1],10 to 100 µM
same,IC50,[2],1 to 10 µM
same,IC50,[3],1000 to 10000 nM
same,IC50,"[3]; read-out: In vitro enzymatic IC50, HDAC Paralog 8, Table 2",1000 to 10000 nM
same,half-life at 1 μM,[4],7.1 min
same,IC50,[5],1 to 100 nM
same,Selectivity (6 v 8) (fold),"[5]; Table 1, number",291.4 fold
same,Selectivity (6 v 8) (fold),"[5]; Table 1, range class",IV (IV: >100-1000)
same,IC50,"[5]; read-out: In vitro enzymatic IC50, HDAC Paralog 6, Table 2",1 to 100 nM
O=C(NO)c1ccc(CN2CCc3c([nH]c4ccccc34)C2)c(F)c1 [compound 46],half-life at 1 μM,[6],78.5 min
same,Mouse Plasma Stability (% Remaining at 120 min),[7],43.8%
same,concentration at 15 min,"[8]; brain, 15 min, read-out: Mouse Brain Conc (μM) at 15 min",0.15 µM
same,concentration at 60 min,"[8]; brain, 60 min, read-out: Mouse Brain Conc (μM) at 60 min",0.03 µM
same,concentration at 15 min,"[8]; plasma, 15 min, read-out: Mouse Plasma Conc (μM) at 15 min",0.21 µM
same,concentration at 60 min,"[8]; plasma, 60 min, read-out: Mouse Plasma Conc (μM) at 60 min",0.05 µM
same,Kp at 15 min,"[8]; brain and plasma, brain:plasma, 15 min, read-out: Mouse B:P at 15 min",0.72
same,Kp at 60 min,"[8]; brain and plasma, brain:plasma, 60 min, read-out: Mouse B:P at 60 min",0.6
same,EC50,[9],100 nM
same,IC50,[3],100 to 1000 nM
same,fraction unbound at 5 h,[10],0.062
same,EC50,[11],> 10 µM
same,IC50,[5],1 to 100 nM
same,Selectivity (6 v 8) (fold),"[5]; Table 1, number",51 fold
same,Selectivity (6 v 8) (fold),"[5]; Table 1, range class",III (III: >10-100)
O=C(CCCCCCC(=O)Nc1ccccc1)NO [Vorinostat],"viability at 4 h, 30 µM",[12],117 ± 7.5%
same,CC50 at 72 h,[13],390 nM
same,"viability at 48 h, 30 µM",[14],40.3 ± 1.8%
